Assay results from patent US11484539B2, “Compounds and their uses for alleviating menopause-associated symptoms” (Estetra SPRL, priority 2018, dated 2022).

Test system: post-menopausal women
Assay: Weekly frequency of moderate to severe VMS, dose-finding study
Format: in vivo
Details: for Difference with placebo, LS adjusted mean, absolute change in weekly frequency of moderate to severe VMS / Difference with placebo, LS adjusted mean, relative change in weekly frequency of moderate to severe VMS: 15 mg E4 vs placebo; for Differences with placebo (including ineffective doses 2.5 mg and 5 mg), relative change in weekly frequency of moderate to severe VMS, LS adjusted mean / Differences with placebo (including ineffective doses 2.5 mg and 5 mg), relative change in weekly frequency of moderate to severe VMS, p_value: 15.0 mg vs 0 mg; for Relative change in weekly frequency of moderate to severe VMS, LS adjusted mean: analysis with placebo grouped with 2.5 and 5 mg; for Covariate significance, covariate trt1, p_value, relative change in weekly frequency of moderate to severe VMS: 10 mg, 15 mg vs placebo grouped with 2.5 and 5 mg
Source text: To determine the Minimum Effective Dose (MED), firstly the selection criteria required that patients presented at least 7 moderate to severe VMS/day or at least 50 moderate to severe VMS/week in the week preceding randomization. Secondly, a placebo group was included in a double-blind fashion. Thirdly, the total patient number was such that statistical significance could be obtained between separate arms of the study. Fourthly, the absolute change from baseline in weekly frequency of moderate to severe VMS was taken into account. An analysis of covariance (ANCOVA) was performed based on the untransformed change in weekly frequency of moderate to severe VMS from baseline. Finally, the change in severity from baseline was evaluated. For this, the Severity Scoring System of VMS was documented by the subjects as follows: • a score of Mild (1) for a sensation of heat without sweating; • a score of Moderate (2) for a sensation of heat with sweating/the subject is able to continue activity; and • a score of Severe (3) for a sensation of heat with sweating/which causes cessation of activity.
Enrolment was approximately 18 months. Individual subject participation was up to 27 weeks: up to 6 weeks pre-screening and washout, up to 4 weeks screening and run-in period, up to 91 days (13 weeks) of E4/placebo treatment followed by 2 weeks (14 days) of progestin therapy and a Follow up visit 1 week after completion of progestin therapy in non-hysterectomised subjects only.
To define the minimum effective dose (MED) of the oral dose of E4 by evaluating changes in frequency and in severity of moderate to severe vasomotor symptoms (VMS).
This was a prospective, multicentre, randomised, placebo-controlled, double-blinded, dose-finding study.
Eligible subjects were hysterectomised and non-hysterectomised post-menopausal women aged 40 to 65 years, inclusive, presenting at least 7 moderate to severe hot flushes/day or at least 50 moderate to severe hot flushes/week.
The subjects have met all of the following inclusion criteria at the randomization visit. These criteria were assessed during the screening period: • 1. Women aged 40 to 65 years, inclusive, presenting at least 7 moderate to severe hot flushes/day or at least 50 moderate to severe hot flushes/week in the week preceding randomization. • 2. Body Mass Index (BMI) between 18.0 and 35.0 kg/m^2, inclusive. • 3. Post-menopausal status defined as levels of follicle stimulating hormone (FSH) >40 IU/L and: • amenorrhoea for at least 12 consecutive months or, • amenorrhoea for at least 6 months with estradiol (E2)<20 pg/mL or, • at least 6 weeks post-surgical bilateral oophorectomy with or without hysterectomy with a copy of the pathology report or a statement on letterhead from the subject's physician documenting both ovaries were removed is required. • 4. For non-hysterectomised women: intact uterus with bi-layer endometrial thickness […] on TVUS. • 5. Negative pregnancy test. • 6. Good physical and mental health, in the judgement of the Principal Investigator (PI), on the basis of medical, surgical and gynaecological history, physical examination, gynaecological examination, clinical laboratory, and vital signs. • 7. Subject has provided signed and dated written informed consent before admission to the study. • 8. Subject is able to understand and comply with the protocol requirements, instructions, and protocol-stated restrictions. Exclusion Criteria:
All treatments (Estetrol, hereinafter, E4, [2.5 mg, 5 mg, 10 mg, 15 mg] capsule) were administered once daily (QD) per os for at least 12 consecutive weeks until the last biological assessments (Day 91 maximum) had been performed.
In order to analyse the data recorded in this study, treatment groups have been compared using an ANCOVA (analysis of covariance) with respect to the change in weekly frequency of moderate to severe VMS from baseline to weeks 4 and 12. […]

[1] = week 4, ANCOVA with study centre
[2] = week 12, ANCOVA with study centre

C[C@]12CC[C@@H]3c4ccc(O)cc4CC[C@H]3[C@@H]1[C@@H](O)[C@@H](O)[C@@H]2O [E4, 1,3,5 (10)-estratrien-3,15alpha,16alpha,17beta-tetrol] was tested, and the “Mean change from baseline in weekly frequency of moderate to severe VMS” value (“Mean change from baseline” below) (15 mg E4 QD per os, week 4) was −41.43, the “Relative change (% from baseline) in weekly frequency of moderate to severe VMS, mean” value (shortened to “Relative change (% from baseline)”) (15 mg E4 QD per os, week 4) was −67% and the “Mean change from baseline” value (15 mg E4 QD per os, week 5) was −44.34. For the same molecule, the “Relative change (% from baseline)” value (15 mg E4 QD per os, week 5) was −72%, the “Mean change from baseline” value (15 mg E4 QD per os, week 6) was −46.58 and the “Relative change (% from baseline)” value (15 mg E4 QD per os, week 6) was −76%. For the same molecule, the “Mean change from baseline” value (15 mg E4 QD per os, week 7) was −48.51, the “Relative change (% from baseline)” value (15 mg E4 QD per os, week 7) was −79% and the “Mean change from baseline” value (15 mg E4 QD per os, week 8) was −48.35. The “Relative change (% from baseline)” value (15 mg E4 QD per os, week 8) was −79%, the “Mean change from baseline” value (15 mg E4 QD per os, week 9) was −49.62 and the “Relative change (% from baseline)” value (15 mg E4 QD per os, week 9) was −81%. The “Mean change from baseline” value (15 mg E4 QD per os, week 10) was −48.88, the “Relative change (% from baseline)” value (15 mg E4 QD per os, week 10) was −80% and the “Mean change from baseline” value (15 mg E4 QD per os, week 11) was −49.92. The “Relative change (% from baseline)” value (15 mg E4 QD per os, week 11) was −82%, the “Mean change from baseline” value (15 mg E4 QD per os, week 12) was −50.94 and the “Relative change (% from baseline)” value (15 mg E4 QD per os, week 12) was −84%. The “Difference with placebo, LS adjusted mean, absolute change in weekly frequency of moderate to severe VMS” value [1] was −9.804, the “Difference with placebo, LS adjusted mean, relative change in weekly frequency of moderate to severe VMS” value [1] was −0.1564 and the “Difference with placebo, LS adjusted mean, absolute change in weekly frequency of moderate to severe VMS” value (week 4, without site effect) was −10.71. The “Difference with placebo, LS adjusted mean, relative change in weekly frequency of moderate to severe VMS” value (week 4, without site effect) was −0.1703, the “Difference with placebo, LS adjusted mean, absolute change in weekly frequency of moderate to severe VMS” value [2] was −10.09 and the “Difference with placebo, LS adjusted mean, relative change in weekly frequency of moderate to severe VMS” value [2] was −0.1585. For the same molecule, the “Difference with placebo, LS adjusted mean, absolute change in weekly frequency of moderate to severe VMS” value (week 12, without site effect) was −10.98, the “Difference with placebo, LS adjusted mean, relative change in weekly frequency of moderate to severe VMS” value (week 12, without site effect) was −0.1723 and the “Reduction in the frequency of moderate to severe VMS when compared to baseline” value (15 mg daily dose) was “over 80%”. The “Responders: patients showing a response of 50% or more (relative change from baseline in weekly frequency of moderate to severe VMS)” value (15 mg daily dose, week 12) was 91.8%, the “Responders: patients showing a response of 75% or more (weekly frequency of moderate to severe VMS)” value (15 mg daily dose, week 12) was 77.6% and the “Differences with placebo (including ineffective doses 2.5 mg and 5 mg), relative change in weekly frequency of moderate to severe VMS, LS adjusted mean” value (week 4) was −0.1797. The “Differences with placebo (including ineffective doses 2.5 mg and 5 mg), relative change in weekly frequency of moderate to severe VMS, p_value” (week 4) was 0.00218, the “Differences with placebo (including ineffective doses 2.5 mg and 5 mg), relative change in weekly frequency of moderate to severe VMS, LS adjusted mean” value (week 12) was −0.1826 and the “Differences with placebo (including ineffective doses 2.5 mg and 5 mg), relative change in weekly frequency of moderate to severe VMS, p_value” (week 12) was 0.00099. The “Relative change (% from baseline)” value (15 mg, Week 12) was −84%, the “Relative change (% from baseline)” value (15 mg, week 0) was 0% and the “Relative change (% from baseline)” value (15 mg, week 1) was −22%. The “Relative change (% from baseline)” value (15 mg, week 2) was −46%, the “Relative change (% from baseline)” value (15 mg, week 3) was −57% and the “Relative change (% from baseline)” value (15 mg, week 4) was −67%. For the same molecule, the “Relative change in weekly frequency of moderate to severe VMS, LS adjusted mean” value (15 mg, week 4) was −0.6475, the “Relative change (% from baseline)” value (15 mg, week 5) was −72% and the “Relative change (% from baseline)” value (15 mg, week 6) was −76%. The “Relative change (% from baseline)” value (15 mg, week 7) was −79%, the “Relative change (% from baseline)” value (15 mg, week 8) was −79% and the “Relative change (% from baseline)” value (15 mg, week 9) was −81%. The “Relative change (% from baseline)” value (15 mg, week 10) was −80%, the “Relative change (% from baseline)” value (15 mg, week 11) was −82% and the “Relative change in weekly frequency of moderate to severe VMS, LS adjusted mean” value (15 mg, week 12) was −0.8006. For the same molecule, the “Minimal Effective Dose for the alleviation of VMS” value (perimenopausal and postmenopausal women) was “about 15 mg daily”, the “Efficacy on vasomotor parameters” value (two lowest doses tested (2.5 mg per day and 5 mg per day)) was “did not show efficacy” and the “Covariate significance, covariate trt1, p_value, relative change in weekly frequency of moderate to severe VMS” value (week 4) was 0.0039. The “Covariate significance, covariate trt1, p_value, relative change in weekly frequency of moderate to severe VMS” value (week 12) was 0.0017.
